From patent US11077214B2, “Multimodal CT/optical agents” (University Health Network, priority 2013, dated 2021)

Assay: In vitro photostability of ICG fluorescence at room temperature
Format: physicochemical
Conditions: 3 days at room temperature
Method: The size of the liposome samples was measured using dynamic light scattering (DLS) (90Plus, Brookhaven, Holtsville, N.Y.). The iodine and ICG concentrations were determined using an absorbance assay at a wavelength of 245 nm for iodine and 785 nm for ICG (Cary 50 UV/VIS Spectrophotometer, Varian Inc., Palo Alto, Calif.). The lipid components of the liposome sample was analyzed using ultra performance liquid chromatography (UPLC, ACQUITY, Waters, Milford, Mass.) equipped with an evaporative light scattering detector (ELSD). The in vitro fluorescence measurements were performed using a 2D fluorescence imager (excitation/emission: 735/820 nm, CRI Maestro, Perkin Elmer, Waltham, Mass.).
Free ICG diluted in water, a 1:10 ethanol/water mixture and a 0.5:10 iohexol/water mixture yielded only 8±2%, 3±1%, 7±2% of its original fluorescence, respectively. […] The photostability of the encapsulated ICG was investigated by incubating the liposome samples and the free ICG solutions (at 7 physiologically relevant concentrations ranging from 0.5 to 2.5 μg/mL) at room temperature over a 21-day period.

retained original fluorescence signal (diluted in 0.5:10 iohexol/water mixture): 7±2%
retained original fluorescence signal (diluted in 1:10 ethanol/water mixture): 3±1%
retained original fluorescence signal (diluted in water): 8±2%
SMILES: CC1(C)C(/C=C/C=C/C=C/C=C2\N(CCCCS(=O)(=O)O)c3ccc4ccccc4c3C2(C)C)=[N+](CCCCS(=O)(=O)[O-])c2ccc3ccccc3c21 [Free ICG, indocyanine green]
